These compounds were tested against CDK12 complexed with Cyclin K (Homo sapiens (Human), UniProt Q9NYV4) (assay: CDK enzymatic assay (HTRF, LANCE Ultra kinase assay)). Conditions: 60 minutes pre-incubation, 1 mM ATP.
Sequence of CDK12 complexed with Cyclin K (Q9NYV4 whole entry): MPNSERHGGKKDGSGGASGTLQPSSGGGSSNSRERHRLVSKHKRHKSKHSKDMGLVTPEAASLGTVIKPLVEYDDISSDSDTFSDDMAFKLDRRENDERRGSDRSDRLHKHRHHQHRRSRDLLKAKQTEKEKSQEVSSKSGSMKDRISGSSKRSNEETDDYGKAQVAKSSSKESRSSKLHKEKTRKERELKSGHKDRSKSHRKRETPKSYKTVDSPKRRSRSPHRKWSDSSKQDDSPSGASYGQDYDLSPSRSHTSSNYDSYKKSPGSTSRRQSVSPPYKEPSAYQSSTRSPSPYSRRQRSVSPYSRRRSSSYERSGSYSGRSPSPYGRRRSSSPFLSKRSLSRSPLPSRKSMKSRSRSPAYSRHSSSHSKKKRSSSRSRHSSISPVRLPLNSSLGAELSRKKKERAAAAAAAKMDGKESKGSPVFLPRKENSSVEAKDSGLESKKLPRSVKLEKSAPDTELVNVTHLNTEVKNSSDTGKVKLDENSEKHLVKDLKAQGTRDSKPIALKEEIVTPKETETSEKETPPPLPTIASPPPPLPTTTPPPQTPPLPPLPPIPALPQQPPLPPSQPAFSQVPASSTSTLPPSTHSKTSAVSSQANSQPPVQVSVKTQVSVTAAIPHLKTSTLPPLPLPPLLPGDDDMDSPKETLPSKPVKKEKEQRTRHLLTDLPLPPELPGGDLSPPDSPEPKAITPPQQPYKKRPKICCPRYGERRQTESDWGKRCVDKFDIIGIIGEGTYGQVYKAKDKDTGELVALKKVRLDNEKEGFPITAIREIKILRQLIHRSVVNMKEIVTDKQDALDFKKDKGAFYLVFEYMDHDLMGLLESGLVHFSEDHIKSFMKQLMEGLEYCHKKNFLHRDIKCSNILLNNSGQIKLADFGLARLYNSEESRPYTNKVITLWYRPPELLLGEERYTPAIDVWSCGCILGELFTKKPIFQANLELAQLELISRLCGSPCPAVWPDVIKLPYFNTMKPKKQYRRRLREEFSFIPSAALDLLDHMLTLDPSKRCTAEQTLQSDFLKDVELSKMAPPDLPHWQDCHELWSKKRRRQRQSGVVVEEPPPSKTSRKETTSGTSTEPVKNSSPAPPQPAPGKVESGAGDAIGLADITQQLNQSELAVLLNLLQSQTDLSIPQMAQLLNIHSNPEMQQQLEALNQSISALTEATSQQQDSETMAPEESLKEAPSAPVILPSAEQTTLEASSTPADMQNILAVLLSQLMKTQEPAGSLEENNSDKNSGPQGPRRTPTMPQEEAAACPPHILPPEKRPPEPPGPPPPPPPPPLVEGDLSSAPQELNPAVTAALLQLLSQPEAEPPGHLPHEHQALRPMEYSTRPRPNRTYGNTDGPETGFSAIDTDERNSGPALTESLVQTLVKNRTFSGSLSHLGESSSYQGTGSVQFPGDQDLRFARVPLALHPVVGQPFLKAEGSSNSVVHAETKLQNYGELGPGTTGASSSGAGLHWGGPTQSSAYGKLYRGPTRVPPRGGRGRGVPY
Sequence of CDK12 complexed with Cyclin K (O75909 whole entry partner): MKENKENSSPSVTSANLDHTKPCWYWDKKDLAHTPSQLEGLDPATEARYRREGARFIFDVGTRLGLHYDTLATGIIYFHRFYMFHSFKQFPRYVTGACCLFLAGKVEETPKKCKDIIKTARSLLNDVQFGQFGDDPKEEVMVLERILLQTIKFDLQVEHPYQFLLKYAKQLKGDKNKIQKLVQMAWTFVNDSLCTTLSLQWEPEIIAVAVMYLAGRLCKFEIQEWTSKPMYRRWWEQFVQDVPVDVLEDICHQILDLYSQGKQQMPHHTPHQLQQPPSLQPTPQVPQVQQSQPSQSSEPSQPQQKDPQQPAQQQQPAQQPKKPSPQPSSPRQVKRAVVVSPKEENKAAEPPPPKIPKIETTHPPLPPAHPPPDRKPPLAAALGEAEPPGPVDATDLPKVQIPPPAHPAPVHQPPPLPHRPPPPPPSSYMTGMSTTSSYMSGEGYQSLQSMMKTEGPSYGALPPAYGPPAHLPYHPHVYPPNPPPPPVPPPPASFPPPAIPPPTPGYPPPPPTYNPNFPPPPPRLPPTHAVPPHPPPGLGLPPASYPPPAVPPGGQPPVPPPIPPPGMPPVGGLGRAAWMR
Format: biochemical
Method: The following activity of the CDK enzymes in complex with their respective cyclins we assayed: CDK1 complexed with Cyclin B1; CDK2 complexed with Cyclin E1; CDK4 complexed with Cyclin D1; CDK6 complexed with Cyclin D1; CDK6 complexed with Cyclin D3; CDK9 complexed with Cyclin T1; CDK7 complexed with Cyclin H/MAT1; CDK2 complexed with Cyclin A2; CDK5 complexed with p35; CDK12 complexed with Cyclin K; CDK13 complexed with Cyclin K. These in vitro enzyme activity are assayed using homogeneous time-resolved energy transfer (HTRF), which measures phosphorylation of a peptide substrate. The LANCE® Ultra kinase assay (PerkinElmer) uses a ULight™-labeled EIF4E-binding protein 1 (THR37/46) peptide (DYSTTPGGTLFSTTPGTRI) (SEQ ID NO: 1) substrate and a Europium-labeled anti-phospho-4E-BP1 antibody (CDK2, CDK1, CDK4, CDK6, CDK9, CDK12, CDK13) or ULight™-labeled Myelin Basic Protein peptide (VTPRTPPP) (SEQ ID NO: 2) substrate and a Europium-labeled anti-phospho-MBP antibody (CDK7). Each CDK enzyme activity assays utilized human CDK co-expressed as N-terminal GST-tagged protein with its full length cyclin partner using a baculovirus expression system.
Enzyme was pre-incubated with compounds for 30 minutes (CDK1,2,4,6,9) or 60 minutes (CDK7, CDK12, CDK13) prior to addition of ATP and Ulight-peptide (1 mM and 50 nM final, respectively), in assay buffer containing 50 mM HEPES pH 7.5, 1 mM EGTA, 10 mM MgCl2, 2 mM DTT, 0.05 mg/mL BSA, and 0.01% Tween 20.
The reaction was then incubated for 60-90 minutes at room temperature. The reactions were stopped by the addition of EDTA and Europium labeled antibody, for a final concentration of 15 mM and 1.0-1.5 nM, respectively. HTRF signals were read after 15-120 minutes. A ratio of fluorescence transferred to the labeled substrate (665 nm) relative to fluorescence of the Europium donor (620 nm) represents the extent of phosphorylation. Ratios for treated wells were normalized to DMSO only (100% activity) and no enzyme (0% activity) controls. Normalized data was analyzed using a three or four parameter dose response curve to determine IC50 for each compound and are shown in Table A. Control reference inhibitors were included on each plate.
In the case of `N#Cc1cnc2c(c1)ncn2[C@H]1CCC[C@@H](Nc2ncc(C#N)c(-c3cnn(CC(F)F)c3)n2)C1` [9/9A, 3-((1S,3R)-3-((5-Cyano-4-(1-(2,2-difluoroethyl)-1H-pyrazol-4-yl)pyrimidin-2-yl)amino)cyclohexyl)-3H-imidazo[4,5-b]pyridine-6-carbonitrile], the IC50 is reported as < 50 nM.
`N#Cc1cnc(N[C@@H]2CCC[C@H](n3cnc4cccc(C#N)c43)C2)nc1-c1cnn(CC(F)F)c1` [13/13A, 1-((1S,3R)-3-((5-Cyano-4-(1-(2,2-difluoroethyl)-1H-pyrazol-4-yl)pyrimidin-2-yl)amino)cyclohexyl)-1H-benzo[d]imidazole-7-carbonitrile] was tested, and the IC50 was < 50 nM.
With `Cc1c(-c2nc(N[C@@H]3CCC[C@H](n4cnc5cc(C#N)cnc54)C3)ncc2C#N)nnn1C` [28/28A, 3-((1S,3R)-3-((5-Cyano-4-(1,5-dimethyl-1H-1,2,3-triazol-4-yl)pyrimidin-2-yl)amino)cyclohexyl)-3H-imidazo[4,5-b]pyridine-6-carbonitrile] the IC50 was < 50 nM.
In the case of `N#Cc1cnc2c(c1)ncn2[C@H]1CCC[C@@H](Nc2ncc(C(F)(F)F)c(-c3cnn(CC(F)F)c3)n2)C1` [Example 1, 3-((1S,3R)-3-((4-(1-(2,2-Difluoroethyl)-1H-pyrazol-4-yl)-5-(trifluoromethyl)pyrimidin-2-yl)amino)cyclohexyl)-3H-imidazo[4,5-b]pyridine-6-carbonitrile], the IC50 is reported as < 50 nM.
With `N#Cc1cnc2c(c1)ncn2[C@H]1CC[C@@H](Nc2ncc(C(F)(F)F)c(-c3cnn(CC(F)F)c3)n2)C1` [Example 2, 3-((1S,3R)-3-((4-(1-(2,2-Difluoroethyl)-1H-pyrazol-4-yl)-5-(trifluoromethyl)pyrimidin-2-yl)amino)cyclopentyl)-3H-imidazo[4,5-b]pyridine-6-carbonitrile] the IC50 was > 500 nM.
`N#Cc1cnc(N[C@@H]2CCC[C@H](n3cnc4ccccc43)C2)nc1-c1cnn(CC(F)F)c1` [Example 3, 2-(((1R,3S)-3-(1H-Benzo[d]imidazol-1-yl)cyclohexyl)amino)-4-(1-(2,2-difluoroethyl)-1H-pyrazol-4-yl)pyrimidine-5-carbonitrile] was tested, and the IC50 was < 50 nM.
With `FC(F)Cn1cc(-c2nc(N[C@@H]3CCC[C@H](n4cnc5cc(C(F)(F)F)cnc54)C3)ncc2C(F)(F)F)cn1` [Example 4, 4-(1-(2,2-Difluoroethyl)-1H-pyrazol-4-yl)-5-(trifluoromethyl)-N-((1R,3S)-3-(6-(trifluoromethyl)-3H-imidazo[4,5-b]pyridin-3-yl)cyclohexyl)pyrimidin-2-amine] the IC50 was < 50 nM.
For `COC(=O)c1ccc2ncn([C@H]3CCC[C@@H](Nc4ncc(C(F)(F)F)c(-c5cnn(CC(F)F)c5)n4)C3)c2n1` [Example 5, Methyl 3-((1S,3R)-3-((4-(1-(2,2-difluoroethyl)-1H-pyrazol-4-yl)-5-(trifluoromethyl)pyrimidin-2-yl)amino)cyclohexyl)-3H-imidazo[4,5-b]pyridine-5-carboxylate], the IC50 was < 50 nM.
With `COc1ccc2ncn([C@H]3CCC[C@@H](Nc4ncc(C(F)(F)F)c(-c5cnn(CC(F)F)c5)n4)C3)c2n1` [Example 6, 4-(1-(2,2-Difluoroethyl)-1H-pyrazol-4-yl)-N-((1R,3S)-3-(5-methoxy-3H-imidazo[4,5-b]pyridin-3-yl)cyclohexyl)-5-(trifluoromethyl)pyrimidin-2-amine] the IC50 was < 50 nM.
`FC(F)Cn1cc(-c2nc(N[C@@H]3CCC[C@H](n4cnc5cnccc54)C3)ncc2C(F)(F)F)cn1` [Example 7, N-((1R,3S)-3-(1H-Imidazo[4,5-c]pyridin-1-yl)cyclohexyl)-4-(1-(2,2-difluoroethyl)-1H-pyrazol-4-yl)-5-(trifluoromethyl)pyrimidin-2-amine] was tested, and the IC50 was < 50 nM.
In the case of `Cc1ccnc2c1ncn2[C@H]1CCC[C@@H](Nc2ncc(C#N)c(-c3cnn(CC(F)F)c3)n2)C1` [Example 8, 4-(1-(2,2-Difluoroethyl)-1H-pyrazol-4-yl)-2-(((1R,3S)-3-(7-methyl-3H-imidazo[4,5-b]pyridin-3-yl)cyclohexyl)amino)pyrimidine-5-carbonitrile], the IC50 is reported as < 50 nM.
For `N#Cc1cnc(N[C@@H]2CCC[C@H](n3cnc4cccnc43)C2)nc1-c1cnn(CC(F)F)c1` [Example 11, 2-(((1R,3S)-3-(3H-Imidazo[4,5-b]pyridin-3-yl)cyclohexyl)amino)-4-(1-(2,2-difluoroethyl)-1H-pyrazol-4-yl)pyrimidine-5-carbonitrile], the IC50 was < 50 nM.
`FC(F)Cn1cc(-c2nc(N[C@@H]3CCC[C@H](n4cnc5cccnc54)C3)ncc2C(F)(F)F)cn1` [Example 12, N-((1R,3S)-3-(3H-Imidazo[4,5-b]pyridin-3-yl)cyclohexyl)-4-(1-(2,2-difluoroethyl)-1H-pyrazol-4-yl)-5-(trifluoromethyl)pyrimidin-2-amine] was tested, and the IC50 was < 50 nM.
`N#Cc1cnc2c(c1)ncn2[C@H]1CCC[C@@H](Nc2ncc(Cl)c(-c3cnn(CC(F)F)c3)n2)C1` [Example 14, 3-((1S,3R)-3-((5-Chloro-4-(1-(2,2-difluoroethyl)-1H-pyrazol-4-yl)pyrimidin-2-yl)amino)cyclohexyl)-3H-imidazo[4,5-b]pyridine-6-carbonitrile] was tested, and the IC50 was < 50 nM.
In the case of `N#Cc1cnc2c(ccn2[C@H]2CCC[C@@H](Nc3ncc(C(F)(F)F)c(-c4cnn(CC(F)F)c4)n3)C2)c1` [Example 15, 1-((1S,3R)-3-((4-(1-(2,2-Difluoroethyl)-1H-pyrazol-4-yl)-5-(trifluoromethyl)pyrimidin-2-yl)amino)cyclohexyl)-1H-pyrrolo[2,3-b]pyridine-5-carbonitrile], the IC50 is reported as < 50 nM.
With `N#Cc1ccc2c(ccn2[C@H]2CCC[C@@H](Nc3ncc(C(F)(F)F)c(-c4cnn(CC(F)F)c4)n3)C2)c1` [Example 16, 1-((1S,3R)-3-((4-(1-(2,2-Difluoroethyl)-1H-pyrazol-4-yl)-5-(trifluoromethyl)pyrimidin-2-yl)amino)cyclohexyl)-1H-indole-5-carbonitrile] the IC50 was 50 to 500 nM.
`Cc1c(-c2nc(N[C@@H]3CCC[C@H](n4cnc5cccnc54)C3)ncc2C#N)cnn1C` [Example 17, 2-(((1R,3S)-3-(3H-Imidazo[4,5-b]pyridin-3-yl)cyclohexyl)amino)-4-(1,5-dimethyl-1H-pyrazol-4-yl)pyrimidine-5-carbonitrile] was tested, and the IC50 was 50 to 500 nM.
`N#Cc1cnc(N[C@@H]2CCC[C@H](n3cnc4cccnc43)C2)nc1-c1cnn2c1CCC2` [Example 18, 2-(((1R,3S)-3-(3H-Imidazo[4,5-b]pyridin-3-yl)cyclohexyl)amino)-4-(5,6-dihydro-4H-pyrrolo[1,2-b]pyrazol-3-yl)pyrimidine-5-carbonitrile] was tested, and the IC50 was < 50 nM.
`Cc1nn(C)cc1-c1nc(N[C@@H]2CCC[C@H](n3cnc4cccnc43)C2)ncc1C#N` [Example 19, 2-(((1R,3S)-3-(3H-Imidazo[4,5-b]pyridin-3-yl)cyclohexyl)amino)-4-(1,3-dimethyl-1H-pyrazol-4-yl)pyrimidine-5-carbonitrile] was tested, and the IC50 was > 500 nM.
For `Cn1ncc(-c2nc(N[C@@H]3CCC[C@H](n4cnc5cccnc54)C3)ncc2C#N)c1C#N` [Example 20, 2-(((1R,3S)-3-(3H-Imidazo[4,5-b]pyridin-3-yl)cyclohexyl)amino)-4-(5-cyano-1-methyl-1H-pyrazol-4-yl)pyrimidine-5-carbonitrile], the IC50 was 50 to 500 nM.
In the case of `N#Cc1cnc(N[C@@H]2CCC[C@H](n3cnc4cccnc43)C2)nc1-c1c[nH]nc1C1CC1` [Example 21, 2-(((1R,3S)-3-(3H-Imidazo[4,5-b]pyridin-3-yl)cyclohexyl)amino)-4-(3-cyclopropyl-1H-pyrazol-4-yl)pyrimidine-5-carbonitrile], the IC50 is reported as < 50 nM.
With `Cn1nccc1-c1nc(N[C@@H]2CCC[C@H](n3cnc4cccnc43)C2)ncc1C#N` [Example 22, 2-(((1R,3S)-3-(3H-Imidazo[4,5-b]pyridin-3-yl)cyclohexyl)amino)-4-(1-methyl-1H-pyrazol-5-yl)pyrimidine-5-carbonitrile] the IC50 was > 500 nM.
For `Cn1ncc(-c2nc(N[C@@H]3CCC[C@H](n4cnc5cccnc54)C3)ncc2C#N)c1C(F)(F)F` [Example 23, 2-(((1R,3S)-3-(3H-Imidazo[4,5-b]pyridin-3-yl)cyclohexyl)amino)-4-(1-methyl-5-(trifluoromethyl)-1H-pyrazol-4-yl)pyrimidine-5-carbonitrile], the IC50 was 50 to 500 nM.
In the case of `CCn1cc(-c2nc(N[C@@H]3CCC[C@H](n4cnc5cccnc54)C3)ncc2C#N)cn1` [Example 24, 2-(((1R,3S)-3-(3H-Imidazo[4,5-b]pyridin-3-yl)cyclohexyl)amino)-4-(1-ethyl-1H-pyrazol-4-yl)pyrimidine-5-carbonitrile], the IC50 is reported as < 50 nM.
With `N#Cc1cnc(N[C@@H]2CCC[C@H](n3cnc4cccnc43)C2)nc1-c1cnn2c1OCCC2` [Example 25, 2-(((1R,3S)-3-(3H-Imidazo[4,5-b]pyridin-3-yl)cyclohexyl)amino)-4-(6,7-dihydro-5H-pyrazolo[5,1-b][1,3]oxazin-3-yl)pyrimidine-5-carbonitrile] the IC50 was 50 to 500 nM.
